The structures appear in SMILES notation.

For the test, the target named is T1, human alpha2A-adrenergic receptor (Homo sapiens, UniProt P08913).
T1 construct: human HT29 cells (RB-HAL2A, NEN, Zaventem, Belgium), which endogenously express the alpha2A-adrenergic receptor; purchased NEN, Zaventem, Belgium RB-HAL2A; host or cells: human HT29 cells (endogenous expression), membrane preparation
T1 sequence (P08913 1-465): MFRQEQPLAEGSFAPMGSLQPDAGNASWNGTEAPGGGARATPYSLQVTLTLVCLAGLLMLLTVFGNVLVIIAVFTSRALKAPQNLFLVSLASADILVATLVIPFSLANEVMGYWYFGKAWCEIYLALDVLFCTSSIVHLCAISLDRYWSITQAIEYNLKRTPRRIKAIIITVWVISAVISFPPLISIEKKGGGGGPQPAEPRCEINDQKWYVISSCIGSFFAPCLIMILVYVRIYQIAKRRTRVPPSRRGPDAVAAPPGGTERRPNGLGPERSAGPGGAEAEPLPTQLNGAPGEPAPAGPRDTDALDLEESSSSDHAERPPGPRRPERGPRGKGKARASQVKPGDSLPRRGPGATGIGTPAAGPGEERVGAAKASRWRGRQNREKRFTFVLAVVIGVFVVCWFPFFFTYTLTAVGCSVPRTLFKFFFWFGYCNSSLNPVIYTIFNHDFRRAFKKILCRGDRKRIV
Put plainly: Binding affinity to human alpha2A-adrenergic receptor ([3H]-MK-912 displacement, HT29 cell membrane preparation). To be noted: compound concentration 10 NM [sic] (method: 10 μmol/l); displacement of 0.5 nmol/l [3H]-MK-912; HT29 membranes; pH 7.4. Here is the method:
Method for Determining the Binding Affinity to Human Alpha2A-adrenergic Receptor
The affinity of the compounds according to the invention to the pain-relevant alpha2A-receptor was investigated as follows.
The receptor affinity of the compounds according to the invention to human alpha2A-adrenergic receptor was determined in a microtiter plate batch. For this purpose, the compounds to be tested were incubated in a concentration of 10 μmol/l with a receptor membrane preparation of human HT29 cells (RB-HAL2A, NEN, Zaventem, Belgium), which endogenously express the alpha2A-adrenergic receptor, at a protein concentration of 40 μg protein/250 μl incubation batch in the presence of 0.5 nmol/l of the radioactively marked ligands [3H]-MK-912 (NET-1059, NEN, Zaventem, Belgium) for 30 minutes, with exclusion of light, at ambient temperature. A 25 mmol/l sodium phosphate buffer at a pH of 7.4 was used as the buffer system. The unspecific bond was determined in the presence of 10 μmol/l phentolamine. After incubation, the microtiter plates were filtered on glass fiber microtiter filter plates (Whatman GF/B, Hassel, Munich) using a Brandel Cell Harvester (MPRI-96T type, Hassel, Munich) and after drying of the glass fiber filter plates and subsequent charging of the plates with 35 μl of a scintillator (Ultima Gold, Canberra-Packard, Freiburg) were measured in a microtiter plate counter (1450 Microbeta Trilux, PerkinElmer-Wallac, Freiburg) after a delay of at least 90 minutes. The glass fiber microtiter filter plates were each pretreated prior to filtration of the incubation plates for 30 minutes with 50 μl per indentation of a 25 mmol/l sodium phosphate buffer supplemented by 0.5% (v/v) polyethylene imine at a pH of 7.4. The percentage inhibition effect of the compounds was calculated as a displacement of the radioactive ligand from its specific bond to the human alpha2A-adrenergic receptor.
Determining the Binding Affinity to Human Alpha2A-adrenergic Receptor
The binding affinities to human alpha2A-adrenergic receptor were determined by the foregoing methods.
With `OC1(Cc2ccc(F)cc2)C(CN2CCCCC2)CCCC1CN1CCCCC1` (stereo not drawn) [1-(4-fluorobenzyl)-2,6-bis-piperidin-1-ylmethyl-cyclohexanol], the inhibition (as a rule, the percentage by which the read-out fell short of the control) at 10 µM worked out at 87%. As for `OC1(Cc2c(F)cccc2Cl)C(CN2CCCCC2)CCCC1CN1CCCCC1` (stereo not drawn) [1-(2-chloro-6-fluorobenzyl)-2,6-bis-piperidin-1-ylmethyl-cyclohexanol], the figure is 68%; as for `OC1(Cc2cccc(F)c2)C(CN2CCCCC2)CCCC1CN1CCCCC1` (stereo not drawn) [1-(3-fluorobenzyl)-2,6-bis-piperidin-1-ylmethyl-cyclohexanol], 59%.

As for `COc1ccccc1C1(O)C(CN2CCCCC2)CCCC1CN1CCCCC1` (stereo not drawn) [1-(2-methoxy-phenyl)-2,6-bis-piperidin-1-ylmethyl-cyclohexanol], the inhibition at 10 µM was determined as 30%.

As for `OC1(c2cccc(F)c2)C(CN2CCCCC2)CCCC1CN1CCCCC1` (stereo not drawn) [1-(3-fluorophenyl)-2,6-bis-piperidin-1-ylmethyl-cyclohexanol], the inhibition at 10 µM amounted to 48%. The compound `OC1(Cc2ccc(Cl)cc2Cl)C(CN2CCCCC2)CCCC1CN1CCCCC1` (stereo not drawn) [1-(2,4-dichlorobenzyl)-2,6-bis-piperidin-1-ylmethyl-cyclohexanol] registered an inhibition at 10 µM of 100%. `OC1(c2cccc(C(F)(F)F)c2)C(CN2CCCCC2)CCCC1CN1CCCCC1` (stereo not drawn) [2,6-bis-piperidin-1-ylmethyl-1-(3-trifluoromethyl-phenyl)-cyclohexanol]: the inhibition at 10 µM was determined as 56%. `OC1(c2ccc(Cl)c(C(F)(F)F)c2)C(CN2CCCCC2)CCCC1CN1CCCCC1` (stereo not drawn) [1-(4-chloro-3-trifluoromethyl-phenyl)-2,6-bis-piperidin-1-ylmethyl-cyclohexanol] yielded an inhibition at 10 µM of 26%. `Cc1ccc(C)c(CC2(O)C(CN3CCCCC3)CCCC2CN2CCCCC2)c1` (stereo not drawn) [1-(2,5-dimethyl-benzyl)-2,6-bis-piperidin-1-ylmethyl-cyclohexanol] yielded an inhibition at 10 µM of 100%. In the case of `OC1(c2ccc(F)c(Cl)c2)C(CN2CCCCC2)CCCC1CN1CCCCC1` (stereo not drawn) [1-(3-chloro-4-fluorophenyl)-2,6-bis-piperidin-1-ylmethyl-cyclohexanol] it was 38%.

As for `OC1(Cc2cccc(Cl)c2)C(CN2CCCCC2)CCCC1CN1CCCCC1` (stereo not drawn) [1-(3-chlorobenzyl)-2,6-bis-piperidin-1-ylmethyl-cyclohexanol], the inhibition at 10 µM worked out at 98%.

For `OC1(c2cc(Cl)cc(Cl)c2)C(CN2CCCCC2)CCCC1CN1CCCCC1` (stereo not drawn) [1-(3,5-dichlorophenyl)-2,6-bis-piperidin-1-ylmethyl-cyclohexanol], the inhibition at 10 µM worked out at 33%.

Compound `Cc1ccccc1CC1(O)C(CN2CCCCC2)CCCC1CN1CCCCC1` (stereo not drawn) [1-(2-methyl-benzyl)-2,6-bis-piperidin-1-ylmethyl-cyclohexanol] yielded an inhibition at 10 µM of 100%.

Compound `Cc1cccc(CC2(O)C(CN3CCCCC3)CCCC2CN2CCCCC2)c1` (stereo not drawn) [1-(3-methyl-benzyl)-2,6-bis-piperidin-1-ylmethyl-cyclohexanol] showed an inhibition at 10 µM of 100%. On to `OC1(Cc2ccc(Cl)cc2)C(CN2CCCCC2)CCCC1CN1CCCCC1` (stereo not drawn) [1-(4-chlorobenzyl)-2,6-bis-piperidin-1-ylmethyl-cyclohexanol], for which 10 µM produced 88% inhibition. In the case of `OC1(Cc2ccccc2Cl)C(CN2CCCCC2)CCCC1CN1CCCCC1` (stereo not drawn) [1-(2-chlorobenzyl)-2,6-bis-piperidin-1-ylmethyl-cyclohexanol] it was 100%. `COc1cccc(CC2(O)C(CN3CCCCC3)CCCC2CN2CCCCC2)c1` (stereo not drawn) [1-(3-methoxy-benzyl)-2,6-bis-piperidin-1-ylmethyl-cyclohexanol] showed an inhibition at 10 µM of 80%.

`OC1(c2cccc(Cl)c2)C(CN2CCCCC2)CCCC1CN1CCCCC1` (stereo not drawn) [1-(3-chlorophenyl)-2,6-bis-piperidin-1-ylmethyl-cyclohexanol]: the inhibition at 10 µM is 51%.

(Values after patent US7569585B2, “1, 5-diaminopentan-3-ol compounds and related treatment methods” (Gruenenthal GmbH, priority 2001, dated 2009).)
